This data set relates to MIA (pancreatic cancer) cell genome. In words: ctDNA coculture with MIA cells, whole genome sequencing: genomic insertion sites, transposons at insertion points and SNVs (pancreatic cancer). It is filed as cell-based, human. As to conditions: for blast orientation / blast chr / Transposon orientation / Distance from insertion / Location relative to insertion: TABLE 8, pancreatic cancer co-culture; for blast orientation: BLAST alignment orientation; for blast chr: chromosome with the longest result for BLAST analysis of the full contig; for Transposon orientation: compared with the human reference genome; for Distance from insertion: distance between insertion and the transposon (0 if they overlap); for Location relative to insertion: location of the transposon relative to the insertion on the contig; for Location: identified genomic insertion site, chromosome; for No. SNP: number of single nucleotide variants (SNVs or SNPs) identified, polynucleotides for pancreatic cancer cells. The method, then:
The integration of ctDNAs into the host cell genome was evaluated. ctDNA was extracted from patient plasma, cultured for 24 hours with cells of a matching cancer cell type or non-matching cancer cell type, and whole genome sequencing was performed. The cell lines used were MM1s (multiple myeloma, MM) and MIA (pancreatic cancer, PC).
The sequence data was used to reconstruct genomic contigs for each experimental condition by de novo assembly. […] Coculture contigs carrying a ctDNA insertion were identified using NucDiff analysis.
Experiments were designed to identify the presence of transposons in ctDNA fragments. To map ctDNA genomic junctions more precisely, a PACBIO probe was ligated to multiple myeloma and pancreatic cancer ctDNA samples to label their 5′ and 3′ ends. Whole-genome sequencing of DNA from cells with ctDNA genomic integration was done using the Illumina platform. De novo assembly was performed on the sequencing output. ctDNA contigs containing PACBIO adaptor were then matched to those contigs containing inserted ctDNA sequences identified in the coculture experiments. Transposable element on ctDNA sequences at the insertion points (<100 nucleotides from transition point between cell and ctDNA) were detected and classified using RepeatMaster.
A search was conducted for transposons that preferentially target cells of matching tumor types. The lists of transposons identified at the ctDNA insertion point in matching and mismatched coculture conditions were compared (e.g., MM ctDNA with MM cells or PC cells). Transposons were selected that were uniquely or preferentially inserted in the matching conditions.
Whole-genome sequencing and Whole exon sequencing: ctDNA was extracted from 10 MM and 10 PC patients. DNA from CD138 (+) cells and from cell lines used in in vitro experiments (MM1s and MIA) was extracted using Blood & Cell Culture DNA Mini Kit (Quiagen, MD). DNA from […] paraffin embedded pancreatic tumors was obtained using QIAamp DNA FFPE Tissue Kit Print (Qiagen, MD).
After extraction, ctDNA was ligated to the PACBIO adaptor ([…]) using the ABM DNA Library Prep Kit for Illumina Sequencing (Applied Biological Materials Inc. Canada). PACBio-labeled ctDNA and regular ctDNA were subjected to standard methods for library preparation and sequencing using Illumina and Agilent protocols, respectively. Applied Biological Materials Inc. prepared the libraries and performed whole-exon and -genome sequencing.
Identification of transposable elements and its nucleotide variants: To determine the locations of transposable-like regions in contigs, sequences were analyzed and transposable elements (TEs) were identified and classified using RepeatMasker version 4.1.0 and the Dfam database (release 3.1) of repetitive DNA families was used as a reference for identifying repeats in ctDNA contig sequences that were part of qualifying structural events. For each repeat sequence identified by RepeatMasker, the overall frequency of the specific repeat (e.g., for AluSp or L1) and their parent class (e.g., SINE) was computed.
Once the TE elements were identified, hit repeats/TE sequences, unique contigs for all samples, and insertion sequence were aligned with MAFFT software version. Mutations in TE sequences were identified by comparison of nucleotides at each position in the multiple sequence alignment with the “Biostrings” R package (version 4.1). A position was considered to contain mutation if the substitution was present in contigs of all samples.

As to Mam_R4, the blast orientation result is reported as “Plus/Plus”, the blast chr result is recorded as “chr9”, the Transposon orientation result is on record as “direct” and the Distance from insertion worked out at 0. For the same molecule, the “Location relative to insertion” value is on record as “intersect”.
L1ME4b: the blast orientation result is on record as “Plus/Plus”, the blast chr entry is reported as “chr7”, the Transposon orientation entry is recorded as “direct” and the Distance from insertion entry was “+1930”. For the same molecule, the “Location relative to insertion” value was “right”.

B1: 35 (nucleic acid, listed as Homo sapiens)
chain: AAGATGGGGAGGATGGTGGTGGAGCAGGCTGGGGAGATGAGGAGCTTGAGGGGCCTAGGAGCTAACCACCCATTCACTGTTTATGGGTGGGGTGGCTCCGGGCAGGTGGCCTGACCCCTCTAAACCTCAGTTTCCCCATCTGTAAAATGGGAGTAATTGTACCTGCCTCACGGGCATGTAGCAGGTGGGAGAGAGAGTAATACGGGCAAGACGTCTAGTGCAGTGGCTGGAACATAACAAGCACCCAGCAAGTGGTGGCCCCATTGCT
With B1, under “TABLE 4”, the Location result is listed as “Chr14” and the “No. SNP” value came out at 0.

B2: 33 (nucleic acid, listed as Homo sapiens)
chain: TGTGTTAGTCAGGATAGGCTAACCTCTGTAACACACAACCCCAATTTTTCAGTGGCTCAGAACAATAGGAGTTTCTTTCTTACTCATGTAAAGTCCAGGTGTGGCAGAAACTTGCGGGGGAGAAAGTCTACTCCACAGCATCACTCAGGGACCCAGGCTCCTGCCTTACGGTGGTTCCGCCATTTTCCAGGGCCTCGGAGTCCTCCATCCCATCTCCTCCATTCAGCTGGTGGATGTGGGAGGAGAGCGTGTATGAAAGACCACACAGAAGCTTTTTTTGGGCCAGGCTTTGAGACGGCGCACATCAGTTTCGCTCTTGTTGCCCAGGCTGGAGTGCAATGGCGCAATCTCGGCTCACCGCAAAAGACACTGGGAAATTTGGTCTGGCCATGTGTCTAGGAAGCAGAGGAGATGGGGTTTCATAAACTCCTGAACTCTCTCTACCACG
As to B2, for the setting “TABLE 4”, the Location result is reported as “Chr21” and the “No. SNP” value worked out at 4.

B3: 30 (nucleic acid, listed as Homo sapiens)
chain: AATATTAATTTGGGCTCTCCAGAGAAACAGAACCAATAGATTACACATAGATATATAGAAAGACAGTTATTACAAGGAATTGGCTCACAGGATTATGTAGGCTGAGAAGTCCCATGACCTGCCGTCTGCAAGCTGGAGACCCAGGAAAGCCGGTGGTGTAGTTCCAGTCCGAGTTGGGAGGTCTGAGAATCGGGAGAGCTGACAGAGTAAGCTCTAGTTGCAGCCTGGAGTCCAGAGGGCAAAGAACACCTATGTCCCATCTCAAGCACGGTCAGGCGTCCCAGCTCAAGCAGAGAGAAAGAAGACTTTCCTGCTCAGCCTCCTTGCTCTAAGCAGCCTCCCGACGGATTGGATGAAGCTCACCCACGCTGGGGAGGGCAGCCACCTTCACTCAGTCCACCAATTCAAATGCTAATCTCATCCAGAAACACCCTCACAGGCACACCCAGAAATAATGTTTAGCCACATATCTGGGCATCCTGAGGACCAGTCAAATTGACTCATAAGTCTCACCATCATA
In the case of B3, under “TABLE 4, gene at identified genomic insertion site”, the Gene entry is “RAB7A”. In addition, under “TABLE 4”, the Location result was “Chr3” and the “No. SNP” value is 1.

B4: 32 (nucleic acid, listed as Homo sapiens)
chain: CTCCATGTTCTGACCTCAGGTGATCTGCCCGCCTCCGCCTCCCATAAGTTCCTTCTGCACCTATTCCATTCCATCTGCAATGTCATCCTGGCCAACCTGTGAATGGGTATAGCAGGATAGTAAGTTAGTCCCAGTGTTTAGGCAGACTCCATAGACCAGATTTAACGTGTTTGTATAAACCGCATGGCTCGCTCTTACTCAGCCTTCGGGTCGGCCTTAAGATACACAGTTTTAAGAAAAGCATTGTCTTCACTCTTAGTGTAGATCAGGTCCTCCTCNCCCCCANCACGTTATGTCCCTGTCATTGAACATTATACTTTTATGAAGAATTGTGAGCTGTCTGAGATTTTACCTTACTTGCAAACTAACAAGTGGGCCTGCCATAGTTTCATGTCTGGCAGAAGACTCCAACAGGTCAGAGATTTTCATCTGTCTTGTTCACTATTGTCTACATAGTGCCTGGAAAAATGCCTGGCACACAGTAAACCCTCAATCAGTATTTTATGAATGAGTGAAC
modifications: misc_difference 279 a, c, t, g, unknown or other; misc_difference 286 a, c, t, g, unknown or other
On to B4, for which, for the setting “TABLE 4”, the Location result is recorded as “Chr21” and the “No. SNP” value was found to be 5.

Source of the values: patent publication US20250241939A1, “NUCLEIC ACID-BASED DELIVERY SYSTEMS AND USES THEREOF” (Kodikaz Therapeutic Solutions, Inc., priority 2022, published 2025).
